Assay results from PubChem BioAssay (NCI).
Where “and” joins values, the source holds several entries; their conditions need not be identical. Equal entries are not always repeated.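 All cell lines were grown in 96-well plates and treated with compound for 48 hours. Abbreviation: GI50, concentration required for 50% inhibition of growth. The concentration for full growth arrest is given as TGI.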

Experiments:
Experiment in all cases: growth of human tumour cells (NCI), 48 h
SNB-78 CNS = tested on: SNB-78 CNS
KM20L2 colon = tested on: KM20L2 colon
M19-MEL melanoma = tested on: M19-MEL melanoma
XF 498 CNS = tested on: XF 498 CNS
DMS 273 small cell lung = tested on: DMS 273 small cell lung
DLD-1 colon = tested on: DLD-1 colon
MCF7 breast = tested on: MCF7 breast
MDA-MB-231 breast = tested on: MDA-MB-231 breast
MDA-MB-435 = tested on: MDA-MB-435
BT-549 breast = tested on: BT-549 breast
T-47D breast = tested on: T-47D breast
HS 578T breast = tested on: HS 578T breast

| SMILES | TGI (SNB-78 CNS) | TGI (KM20L2 colon) | TGI (M19-MEL melanoma) | TGI (XF 498 CNS) | TGI (DMS 273 small cell lung) | TGI (DLD-1 colon) | GI50 (M19-MEL melanoma) | GI50 (DLD-1 colon) | TGI (MCF7 breast) | TGI (MDA-MB-231 breast) | TGI (MDA-MB-435) | TGI (BT-549 breast) | TGI (T-47D breast) | TGI (HS 578T breast) |
| --- | --- | --- | --- | --- | --- | --- | --- | --- | --- | --- | --- | --- | --- | --- |
| Clc1cc2nsnc2c(Cl)n1 | > 100 µM | > 100 µM | 75.5 µM | 31.2 µM | > 100 µM | 42.1 µM |  |  |  |  |  |  |  |  |
| COC(=O)[C@@H]1[C@H](O)[C@H](C)[C@H](O)[C@@](C)(O)/C=C\C=C(C)C(=O)Nc2c(C)c(OC(C)=O)c3c(c2O)C(=O)C(C)=C2OCOC(=C23)C(C)=C[C@@](C)(O)[C@H](O)[C@@H](C)[C@H]1OC(C)=O | > 100 µM | 66.9 µM and > 100 µM | > 100 µM and 21.6 µM and 28.3 µM |  | > 100 µM | > 100 µM and 66.9 µM | 15 µM | 40.7 µM |  |  |  |  |  |  |
| O=C(O)CCc1coc2ccc(O)cc12 | > 100 µM | > 100 µM | > 100 µM | > 100 µM | > 100 µM | > 100 µM |  |  |  |  |  |  |  |  |
| Cc1nc2ccccc2c(=O)n1-c1ccccc1I | > 100 µM |  | > 100 µM |  |  | > 100 µM |  |  |  |  |  |  |  |  |
| COC1CCC2C(NS(=O)(=O)c3ccc(C)cc3)CCCC2O1 (centres undefined) (tested in a mixture with another compound) | > 34.5 µM | > 34.5 µM | > 34.5 µM |  | 22.8 µM | > 34.5 µM |  |  |  |  |  |  |  |  |
| O=C(/C=C/c1ccccc1)NC1C=Nc2ccc(Cl)cc2NC1=O (centres undefined) | > 100 µM | 62.9 µM | 64.5 µM | 50.1 µM | 54.6 µM | > 100 µM |  |  |  |  |  |  |  |  |
| O=C1C2C(C(=O)N1OS(=O)(=O)c1ccccc1)N(Cc1ccccc1)C(=O)N2Cc1ccccc1 (centres undefined) | > 100 µM | > 100 µM | > 100 µM | > 100 µM |  | > 100 µM |  |  |  |  |  |  |  |  |
| CN1C(=O)C(C)(C)C2(SC(C)(C)C2(C)C)N(C)C1=S (centres undefined) | > 100 µM |  | > 100 µM |  | > 100 µM | > 100 µM |  |  |  |  |  |  |  |  |
| C/C(CC(=O)CCC(=O)Nc1cccc(C(F)(F)F)c1)=N\NC(=O)NN | > 100 µM | > 100 µM | > 100 µM | > 100 µM | > 100 µM | > 100 µM |  |  |  |  |  |  |  |  |
| COC(=O)CC1CCN(C#N)CC1CC[N+](=O)[O-] (centres undefined) | > 100 µM | > 100 µM | > 100 µM |  | > 100 µM | > 100 µM |  |  |  |  |  |  |  |  |
| N#CC(c1ccc(Cl)cc1)c1cccc(C(C#N)c2ccc(Cl)cc2)n1 (centres undefined) | > 100 µM | > 100 µM | > 100 µM | 26.2 µM |  | > 100 µM |  |  |  |  |  |  |  |  |
| CCOc1ccc(NC(=O)C(=O)CC(=O)c2c[n+](=O)c3cc(C)c(C)cc3n2[O-])cc1 | > 100 µM | > 100 µM | > 100 µM | > 100 µM | > 100 µM |  |  |  |  |  |  |  |  |  |
| CC1(c2ccc(F)cc2)C(C#N)C(=O)NC(=O)C1C#N (centres undefined) |  | > 100 µM | > 100 µM | > 100 µM | > 100 µM | > 100 µM |  |  |  |  |  |  |  |  |
| O=CN/C=C/c1cc(O)ccc1O | 44.3 µM | > 80.3 µM | 28.5 µM | 34.1 µM | > 100 µM | 34.4 µM |  |  | 30.2 µM |  |  |  |  |  |
| Cc1ccc(N=Nc2ccc(N(CCC#N)CCC#N)cc2C)c(Br)c1 | > 100 µM |  | > 100 µM | 40.6 µM | 41.4 µM | > 100 µM |  |  |  |  |  |  |  |  |
| CN(C)C(=N)c1ccccc1 | > 100 µM | > 100 µM | > 100 µM | > 100 µM | > 100 µM |  |  |  |  |  |  |  |  |  |
| CC(C)C/C(CC(=O)CCC(=O)Nc1ccccc1[N+](=O)[O-])=N\NC(=O)c1cc2ccccc2cc1O |  | > 100 µM | 65.1 µM | > 100 µM |  | > 100 µM |  |  |  |  |  |  |  |  |
| N#CC1C(C#N)C2(c3ccccc3)C(c3ccccc3)=NN(c3ccccc3)CC12 (centres undefined) | > 100 µM | > 100 µM | > 100 µM | > 100 µM | > 100 µM | > 100 µM |  |  |  |  |  |  |  |  |
| CCCCC(=O)OCC(=O)[C@]1(O)Cc2c(O)c3c(c(O)c2[C@@H](OC2CC(NC(=O)C(F)(F)F)C(O)C(C)O2)C1)C(=O)c1c(OC)cccc1C3=O (some centres undefined) |  | > 100 µM | 1.9 µM | 0.97 µM | 3.39 µM | 13.2 µM |  |  |  | > 100 µM | > 100 µM | 9.7 µM | 7.55 µM | 5.05 µM |
| CC(C)=CC(=O)C1c2cccc(O)c2C(=O)c2c(O)cc(C)cc21 (centres undefined) | 7.84 µM | 17.6 µM | 3.43 µM | 3.11 µM | 9.46 µM | 7.89 µM |  |  |  |  |  |  |  |  |
| Cc1cc(C)nc(NS(=O)(=O)c2ccc(NC(=O)c3ccc(Cl)c4c(Nc5ccc(S(=O)(=O)Nc6nc(C)cc(C)n6)cc5)c5ccccc5nc34)cc2)n1 | > 100 µM | 69.9 µM | 8.28 µM | > 100 µM | > 100 µM | 84.2 µM |  |  |  |  |  |  |  |  |
| O=CC[C@H]1C(=O)C[C@@H]2CCC[C@@H]21 | > 100 µM |  | > 100 µM | > 100 µM |  |  |  |  |  |  |  |  |  |  |
| N#CCCN(CCC#N)c1ccc(/C=C2\N=C(c3cc([N+](=O)[O-])ccc3Cl)OC2=O)cc1 |  | > 100 µM | 45 µM | 86.2 µM | > 100 µM |  |  |  |  |  |  |  |  |  |
